# Measured values reported in US20250262223A1, “METHODS FOR THE TREATMENT OF BIOLOGICAL AGING” (BIOVIE INC., priority 2022, published 2025).
# How the values were obtained:
# [1] = Phase 3 neuropsychiatric inventory; assay type: in vivo, human; settings: blinded Phase 3 data, NE3107 and placebo pooled
# Method: Subjects were analyzed for neuropsychiatric inventory. […] An improvement in appetite was also correlated with decreased Cog12, CDR SB and ADCOMS, with increased Alzheimer's disease. A decrease in anxiety was correlated with an increase ADL and decreased CGIC. Sleep improvement was correlated with a decrease in CGIC and decreased in TNFα. The results are described in Table 8 and FIGS. 16A-16B.
# [2] = Phase 3 imaging sub-study FDG-PET; assay type: in vivo, human; settings: subjects with a baseline whole cortex suvr <1.29; blinded Phase 3 data, NE3107 and placebo pooled
# Method: Subjects were analyzed using a fluorodeoxyglucose (FDG)-positron emission tomography (PET) imaging scans. FDG-PET standardized uptake value ratios (“suvr”) were increased in 14/24 subjects with a baseline whole cortex suvr <1.29. […] Cholesterol increases trended with increased Cingulate suvr. The results are described in Table 7 and FIG. 15.
# [3] = tested on: extracellular signal-regulated kinase; settings: cited from earlier work
# [4] = cited from earlier work
# [5] = Phase 3 imaging sub-study vMRI; assay type: in vivo, human; settings: 23 subjects; blinded Phase 3 data, NE3107 and placebo pooled
# Method: Subjects were analyzed using imaging sub-studies vMRI on 23 subjects. It was observed that the volume was increased in the hippocampus and amygdala. In addition, it was observed a decreased CGIC was correlated with decreased hippocampi volume and increased MCP-1 was correlated with increased whole cortex. The results are described in FIGS. 14A-14B and Table 6.
# CpGs (DNA methylation) = test: Illumina 850K array DNA methylation changes following 14 weeks of bezisterim treatment; assay type: in vivo, human; settings: for decrease in DNAm: 14 weeks
# Method: In this study, 23 mild cognitive impaired (“MCI”) and Alzheimer's disease (“AD”) subjects were enrolled based on Clinical Dementia Rating (“CDR”) from their Quick Dementia Rating System (“QDRS”) scale. Advanced MRI imaging (ASL, BOLD, MRS, task-based fMRI) was also performed as well as cognition and memory tests were performed (Cog12, MM SE, QDRS, MoCA). Biomarkers of the subjects were also taken (csf p-Tau, A beta, and plasma TNF) and episome analyses were performed. Finally, a biological clock analysis was performed (DNA methylation profiling).
# Illumina® 850K array DNA methylation changes following 14 weeks of bezisterim treatment were sorted and the top 400 decreased CpGs (decreases >50%) were explored for correlations with changes in clinical results following treatment. Of these, 366 have CpG gene identifications.
# Phase 3 adverse effects = assay type: in vivo
# [6] = tested on: p-IKK beta, p-ERK, p-P38 and p-JNK (Tau phosphorylation); test: in vitro samples: activation of inflammatory kinases and p-Tau; assay type: cell-based
# Description: Without wishing to be bound by theory, it is believed that 17α-ethynylandrost-5-ene-3β,7β,17β-triol binds to ERK 1 and ERK 2, which decreases inflammatory activation of p-IKK beta, p-JNK, p-ERK and p-P38, thereby decreasing serine IRS1 phosphorylation, restoring tyrosine IRS1 phosphorylation and insulin sensitivity.
# [7] = Phase 3 trial, metabolic changes and correlations; assay type: in vivo, human
# Method: Subjects metabolic and correlation changes were analyzed. Many of the genes associated with LOAD (late onset Alzheimer's disease) are related to cholesterol metabolism, which is decreased in AD neuron membranes. Insulin and glycemic controls are known to be involved in neurodegeneration. […] Increased mean amplitude of glycemic excursion (MAGE from CGM) increased risk of Alzheimer's disease progression. Leptin is an anti-inflammatory, neuroprotective and is decreased in AD. […] The results are described in Tables 4 and 5.
# FIGS. 17A-17C illustrates graphs representing increased fasting insulin and HOMA2-% B with decreased HOMA2-% S w/o hypoglycemia. Table 10 provides additional information regarding the fasting insulin and HOMA2-% B with decreased HOMA2-% S w/o hypoglycemia.
# [8] = tested on: ERK- and NF-κB-stimulated inflammatory mediators, including TNF-α; settings: without inhibiting their homeostatic functions; cited from earlier work
# [9] = P < 0.0001, blinded Phase 3 data, NE3107 and placebo pooled
# [10] = blinded Phase 3 data, NE3107 and placebo pooled
smiles,measurement,setting,value
"C#C[C@]1(O)CC[C@H]2[C@@H]3[C@@H](O)C=C4C[C@@H](O)CC[C@]4(C)[C@H]3CC[C@@]21C [NE3107, 17α-ethynylandrost-5-ene-3β,7β,17β-triol]","neuropsychiatric inventory, overall improvement in sleep",[1]; p<0.0001,−1.0
same,"neuropsychiatric inventory, overall improvement in appetite",[1]; p<0.023,−1.0
same,subjects with increased FDG-PET standardized uptake value ratios (suvr),[2],14/24
same,binding to extracellular signal-regulated kinase,[3],binds
same,blood-brain permeability,[4],blood-brain permeable
same,vMRI amygdala volume,[5],increased
same,vMRI hippocampus volume,[5],increased
same,DNA methylation decrease of the top 400 decreased CpGs,CpGs (DNA methylation); 14 weeks of treatment,> 50%
same,decrease in DNAm,CpGs (DNA methylation); HLA-L,56%
same,decrease in DNAm,CpGs (DNA methylation); KCNQ1DN,51%
same,decrease in DNAm,CpGs (DNA methylation); SLC26A1,55%
same,subjects discontinued due to a reported AE,"Phase 3 adverse effects; 10 subjects of 439 enrolled, blinded, NE3107 and placebo pooled",2.3%
same,serious AEs,"Phase 3 adverse effects; 12, blinded, NE3107 and placebo pooled",2.7%
same,related AEs,"Phase 3 adverse effects; 43, blinded, NE3107 and placebo pooled",9.8%
same,subjects who experienced 1 or more AEs,"Phase 3 adverse effects; 156 of 439 subjects, blinded, NE3107 and placebo pooled",35.5%
same,serious AEs that resulted in death,"Phase 3 adverse effects; count, not known whether on IP or placebo",1
same,Akt inhibition of GSK 3beta,[6],increased Akt inhibition of GSK 3beta
same,"activation of inflammatory p-IKK beta, p-ERK, p-P38 and p-JNK",[6]; in vitro samples,decreased activation
same,p-Tau,[6]; in vitro samples,decreased p-Tau
same,Hypoglycemia,"[7]; Increased Fasting Insulin: No, blinded Phase 3 data",2
same,Hypoglycemia,"[7]; Increased Fasting Insulin: Yes, blinded Phase 3 data",0
same,"HOMA2-% B, Change from Baseline",[7]; [9],"+13.5%, *"
same,"HOMA2-% S, Change from Baseline",[7]; [9],"−21.2%, *"
same,"Insulin, Change from Baseline",[7]; [9],"+1.9 μlU/mL,*"
same,"Cholesterol, Change from Baseline",[7]; [10],+3.0 mg/dL
same,"Leptin, V10 median",[7]; [10],29.2 ng/mL
same,Leptin DNAm,[7]; in vivo,increase
same,"MAGE, Change from Baseline","[7]; mean amplitude of glycemic excursion from CGM, blinded Phase 3 data, NE3107 and placebo pooled",-0.57 mg/dL
same,Hypoglycemia,"[7]; with increased insulin and HOMA2-% B and decreased HOMA2% insulin sensitivity, blinded Phase 3 data",no cases of hypoglycemia
same,"inhibition of inflammation-driven ERK- and NF-κB-stimulated inflammatory mediators, including TNF-α",[8],selectively inhibit
